Experiments:
[1] = Diet-induced obese mice: liver weight, triglyceride, glycogen, histology; format: in vivo, C57BL/6 mice
Experimental: (§1) Wild type male C57BL/6 mice were fed a high fat diet consisting of 45% of calories from fat (D12451 Research Diets Inc., New Brunswick, N.J.) starting at 8 weeks of age for 12-24 weeks, while normal diet C57BL/6 controls were maintained on normal chow diet consisting of 4.5% fat (5002 Lab Diet, Philadelphia, Pa.). Diets containing ω-3 fatty acids were fed as previously described 24. Rosiglitazone treatment was administered for three weeks by addition of the compound to the diet in mice that had been on HFD for 16 weeks. Each mouse consumed on average 3.5 mg/kg rosiglitazone per day. Amlexanox was administered by daily oral gavage. […] Animals were housed in a specific pathogen-free facility with a 12-hour light/12-hour dark cycle and given free access to food and water. All animal use was in compliance with the Institute of Laboratory Animal Research Guide for the Care and Use of Laboratory Animals and approved by the University Committee on Use and Care of Animals at the University of Michigan and UCSD.
Liver lipids were isolated as previously described (Norris et. Al. 2003) and the triglyceride levels were measured by Triglyceride Reagent kit.
Determination of glycogen in liver was performed as follows. Briefly, liver tissue was digested in a 30% potassium hydroxide solution, and then glycogen was precipitated using ethanol. After three washes to remove any traces of glucose, glycogen was digested by addition of amyloglucosidase. Released glucose was quantified using a colorimetric kit (Wako, Richmond, Va.).
(§2) Tissues were fixed in formalin for 3 days. Histology was performed by the University of Michigan Cancer Center Research Histology Laboratory.

[2] = Ob/ob mice: glucose tolerance tests; format: in vivo; settings: 100 mg/kg
Experimental: (§3) Particular physiological tests were used during the development of the technology provided herein. For example, in some of the experiments described below, subjects were tested for tolerance of injected glucose and insulin according to the methods described in Chiang et al. (“The protein kinase IKKepsilon regulates energy balance in obese mice”, Cell (2009) 138: 961-975, incorporated herein by reference in its entirety for all purposes). In some of the experiments described below, subjects were tested for tolerance of oral glucose. In particular, mice were fasted for 6 hours before the studies. For ob/ob mice, 1.0-1.5 mg/g of glucose was gavaged into mice, and blood glucose was measured with a glucometer (e.g., OneTouch Ultra glucometer). Measurement of triglycerides, mRNA, and cytokines were performed according to the methods described in Chiang et al. (The protein kinase IKKepsilon regulates energy balance in obese mice. Cell (2009) 138: 961-975).
(§4) For glucose tolerance tests, after a six-hour fast mice were orally gavaged with glucose at a dose of 1.5 g/kg (C57BL/6 mice) or 1.2 g/kg (ob/ob mice). […] Blood glucose was measured at basal, 15, 30, 45, 60, 90, 120 and 180 minutes from tail blood using the One Touch Ultra glucometer (Lifescan, Milpitas, Calif.).

[3] = Established diet-induced obesity treatment group: body weight, food intake, body composition; format: in vivo, C57BL/6 mice
Experimental: as §1
The remaining weight of food provided was determined daily for singly housed mice. Daily food consumption was calculated from a three-day average.

[4] = Ob/ob mice: insulin tolerance test; format: in vivo; settings: 100 mg/kg, 8-week period
Experimental: as §3, §4

[5] = system: broad panel of kinases representing most families; assay: Broad panel of kinases; format: biochemical
[6] = Ob/ob mice: adipose tissue histology and mRNA levels; format: in vivo
Experimental: as §2
(§5) Mouse tissues were isolated, rinsed in Phosphate Buffered Saline (PBS), frozen in liquid nitrogen and stored at −80° C. until extraction. Total RNA was extracted from Liver, WAT and BAT tissues as well as differentiated 3T3-L1 cells using the RNeasy Lipid Tissue Kit (Qiagen, Valencia, Calif.) according to the manufacturer's instructions with the inclusion of a DNase digestion step. Total RNA was extracted from BMDM and SVF cells using the RNeasy Kit (Qiagen, Valencia, Calif.) with a DNase step. The Superscript First-Strand Synthesis System for RTPCR (Invitrogen, Grand Island, N.Y.) was used with random primers for reverse transcription. Realtime PCR amplification of the cDNA was performed on samples in triplicate with Power SYBR Green PCR Master Mix (Applied Biosystems, Carlsbad, Calif.) using the Applied Biosystems 7900HT Fast Realtime PCR System. […] Data was analyzed using the 2-ΔΔCT method, and statistical significance was determined using the unpaired heterocedastic Student's t-test with one averaged sample value per mouse.

[7] = Diet-induced obesity treatment group: blood chemistry; format: in vivo, C57BL/6 mice
Experimental: as §1
Blood glucose was measured by OneTouch Ultra Glucometer. Plasma from mice fasted for six hours was isolated from whole blood collected into heparinized tubes. Insulin concentrations were measured by insulin ELISA kit (Crystal Chem Inc., Downers Grove, Ill.). Leptin and adiponectin levels were measured by ELISA kits purchased from Cayman Chem Inc. (Ann Arbor, Mich.). Cytokine levels were quantified utilizing luminex technology in a multianalyte panel plate purchased from Millipore (Billerica, Mass.). Additionally, TNFα levels were measured using ELISA kits purchased from R&D Systems (Minneapolis, Minn.).

[8] = Diet-induced obesity treatment group: insulin tolerance test; format: in vivo, C57BL/6 mice
Experimental: as §1, §4

[9] = Ob/ob mice: liver mRNA levels; format: in vivo; settings: 100 mg/kg for 14 weeks, vs vehicle
Experimental: as §3, §5

[10] = diet induced obese mice, 25 mg/kg for 8 weeks

CC(C)c1ccc2oc3nc(N)c(C(=O)O)cc3c(=O)c2c1 [amlexanox, 2-amino-7-isopropyl-5-oxo-5H-chromeno[2,3-b]pyridine-3-carboxylic acid]
reductions in hepatic lipids after mice were taken off drug ([1]; continued on high fat diet, stained tissue sections): reversed
large lipid droplets in liver (H & E staining) [1, 10]: largely disseminated
reduction in liver weight [1, 10]: greater than 20%
hepatic glycogen levels ([1]; diet induced obese mice, 25 mg/kg for 8 weeks, vs control HFD mice): lower
reduction of triglyceride content in liver ([1]; diet induced obese mice, 25 mg/kg for 8 weeks, vs vehicle): more than 50%
tolerance to injected glucose ([2]; 5-week period): faster clearance of blood glucose
reduction in the area under the curve (oral glucose tolerance) ([2]; 8-week period, relative to control mice): 30-40%
weight loss ([3]; 25 mg/kg after 12 weeks of 45% high-fat diet, after 4 weeks of treatment): 10 g
reduction in overall mass of adipose tissue ([3]; 25 mg/kg, HFD, treatment phase): > 6 gram
time to return to control weights after treatment was stopped ([3]; withdrawal after 8 weeks of 25 mg/kg treatment, HFD): 6-8 weeks
insulin sensitivity (responsiveness to injected insulin) [4]: dramatically improved
block of other kinases of a broad panel [5]: did not block
expression of Glut4 in WAT ([6]; 100 mg/kg): Increased expression
expression of PPARγ in WAT ([6]; 100 mg/kg): Increased expression
adipose tissue mRNA level, CD11c ([6]; 100 mg/kg for 12 weeks): marked reduction
adipose tissue mRNA level, F4/80 ([6]; 100 mg/kg for 12 weeks): marked reduction
adipose tissue mRNA level, IL-10 ([6]; 100 mg/kg for 12 weeks): marked reduction
adipose tissue mRNA level, MCP-1 ([6]; 100 mg/kg for 12 weeks): marked reduction
adipose tissue mRNA level, MIP1α ([6]; 100 mg/kg for 12 weeks): marked reduction
adipose tissue mRNA level, Rantes ([6]; 100 mg/kg for 12 weeks): marked reduction
adipose tissue mRNA level, TNFα ([6]; 100 mg/kg for 12 weeks): marked reduction
infiltration of inflammatory macrophages in adipose tissue (H & E) ([6]; 100 mg/kg for 12 weeks, epididymal fat): markedly reduced
fasting serum insulin ([7]; 25 mg/kg for 8 weeks after established diet-induced obesity): reversed elevations
decrease in fasting levels of leptin ([7]; 25 mg/kg, HFD, treatment phase): 80%
serum cholesterol ([7]; 25 mg/kg, HFD, treatment phase): unchanged
serum free fatty acids ([7]; 25 mg/kg, HFD, treatment phase): unchanged
serum triglycerides ([7]; 25 mg/kg, HFD, treatment phase): unchanged
insulin sensitivity (insulin tolerance test) ([8]; 25 mg/kg, established diet-induced obesity): restoration in insulin responsiveness to normal diet levels
insulin sensitivity in normal diet-fed mice ([8]; normal diet): did not affect
liver mRNA level, Cd11c [9]: reduced
liver mRNA level, F4/80 [9]: reduced
liver mRNA level, IL-10 [9]: reduced
liver mRNA level, MIP1α [9]: reduced
liver mRNA level, Rantes [9]: reduced
liver mRNA level, TNFα [9]: reduced
liver mRNA level, acetyl CoA carboxylase (ACC) [9]: reduced
liver mRNA level, fatty acid synthase (FAS) [9]: reduced
liver mRNA level, stearyl CoA desaturase (SCD1) [9]: reduced
